Assay results reported in publication PMC8041284, “Tunable Methacrylamides for Covalent Ligand Directed Release Chemistry” (Journal of the American Chemical Society, 2021).

Target: BTK (Homo sapiens, UniProt Q06187)
Experiment: biochemical
Conditions: read-out: BTK inhibition (%)

BTK, sequence (Q06187 402-655 limits assumed): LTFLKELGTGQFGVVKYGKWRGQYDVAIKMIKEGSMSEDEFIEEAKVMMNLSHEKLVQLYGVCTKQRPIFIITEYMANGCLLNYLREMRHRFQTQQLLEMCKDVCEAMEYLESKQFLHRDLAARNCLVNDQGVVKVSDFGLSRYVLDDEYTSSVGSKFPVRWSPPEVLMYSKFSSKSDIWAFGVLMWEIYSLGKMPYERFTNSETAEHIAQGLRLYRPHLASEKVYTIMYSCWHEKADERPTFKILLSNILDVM

SMILES | inhibition at 10 µM
CCN1C[C@]2(OC(=O)c3ccccc3NC(C)=O)CC[C@H](OC)[C@@]34[C@@H]2C[C@@H]([C@@H]13)[C@@]1(O)C[C@H](OC)[C@H]2C[C@@H]4[C@]1(O)[C@H]2OC [PCM-0094835] | 21%
CCC1(O)C(=O)OCc2c1cc1n(c2=O)Cc2cc3cc(O)ccc3nc2-1 (centres unmarked) [PCM-0094873] | 6.2%

Same assay, conditions: read-out: BTK inhibition (%), 0.75 uM BTK, […] probe 3l, 15 min preincubation

SMILES | inhibition at 10 µM
O=c1cccc2n1C[C@@H]1CNC[C@H]2C1 [PCM-0094836] | -10.1%
CC(C)Oc1ccc2c(=O)c(-c3ccccc3)coc2c1 [PCM-0094837] | 17.9%
C[C@@H]1O[C@@H](O[C@H]2[C@H](Oc3cc(O)c(C(=O)CCc4ccc(O)cc4)c(O)c3)O[C@H](CO)[C@@H](O)[C@@H]2O)[C@H](O)[C@H](O)[C@H]1O [PCM-0094838] | 14.8%
O=c1c(O)c(-c2ccc(O)c(O)c2)oc2cc(O)ccc12 [PCM-0094846] | 46.7%
O=C1c2c(O)cc(O)cc2O[C@H](c2cc(O)c(O)c(O)c2)[C@H]1O [PCM-0094847] | -9%
Nc1nc2c(ncn2[C@@H]2O[C@H](CO)[C@@H](O)[C@H]2O)c(=O)[nH]1 [PCM-0094848] | 0%
O=C1C=CC[C@@H]2[C@H]3CCCN4CCC[C@@H](CN12)[C@@H]34 [PCM-0094851] | 13.2%
C=CCc1ccc(O)c(-c2ccc(O)c(CC=C)c2)c1 [PCM-0094855] | 37.9%
COc1ccc(-c2oc3c(CC=C(C)C)c(O[C@@H]4O[C@H](CO)[C@@H](O)[C@H](O)[C@H]4O)cc(O)c3c(=O)c2O[C@@H]2O[C@@H](C)[C@H](O)[C@@H](O)[C@H]2O)cc1 [PCM-0094858] | -0.8%
COc1ccc(-c2cc(=O)c3c(O)cc(O)cc3o2)cc1O [PCM-0094859] | 57.6%
Oc1cc2c(cc1O)[C@@H]1c3ccc(O)c(O)c3OC[C@]1(O)C2 [PCM-0094861] | -15.6%
COc1cc2c(cc1OC)[C@@H]1Cc3ccc(OC)c(OC)c3CN1CC2 [PCM-0094863] | 3.9%
O=c1[nH]cnc2c1ncn2[C@@H]1O[C@H](CO)[C@@H](O)[C@H]1O [PCM-0094864] | -3.1%
C=CCc1ccc(O)c(-c2cc(CC=C)ccc2O)c1 [PCM-0094865] | 16.3%
O=C1CCC[C@@H]2[C@H]3CCCN4CCC[C@@H](CN12)[C@@H]34 [PCM-0094866] | 11.7%
COc1cc(C=O)ccc1O [PCM-0094868] | 21.8%
COc1ccc(CCC(=O)c2c(O)cc(O[C@@H]3O[C@H](CO)[C@@H](O)[C@H](O)[C@H]3O[C@@H]3O[C@@H](C)[C@H](O)[C@@H](O)[C@H]3O)cc2O)cc1O [PCM-0094869] | 9.3%
O=C1CCC[C@@H]2[C@H]3CCC[N@+]4([O-])CCC[C@@H](CN12)[C@@H]34 [PCM-0094874] | -8.6%
OC[C@@H](O)[C@@H](O)[C@H](O)[C@H](O)CO [PCM-0094876] | -17.1%
O=c1c(-c2ccc(O)cc2)coc2c([C@@H]3O[C@H](CO)[C@@H](O)[C@H](O)[C@H]3O)c(O)ccc12 [PCM-0094877] | -0.8%
N=c1ccn2c(n1)O[C@H]1[C@H](O)[C@@H](CO)O[C@H]12 [PCM-0094879] | 6.2%
COc1cc2c(Nc3ccc(NC(=O)c4ccccc4)cc3)ncnc2cc1OCCCN1CCOCC1 [PCM-0094881] | 77.9%
OCCn1cc(-c2ccc3c(c2)CC/C3=N\O)c(-c2ccncc2)n1 [PCM-0094883] | 16.6%
C[C@]1(c2nc3c(C(N)=O)cccc3[nH]2)CCCN1 [PCM-0094885] | -6.2%
NCC(=O)Nc1ccc(-n2nc(C(F)(F)F)cc2-c2ccc3c(ccc4ccccc43)c2)cc1 [PCM-0094886] | 70.3%
CO[C@@H](C(=O)N1Cc2[nH]nc(NC(=O)c3ccc(N4CCN(C)CC4)cc3)c2C1)c1ccccc1 [PCM-0094888] | 85.5%
CN1CCN(CCOc2cc(OC3CCOCC3)c3c(Nc4c(Cl)ccc5c4OCO5)ncnc3c2)CC1 [PCM-0094889] | 59.3%
